Values of other authors, collected in patent publication US20190144909A1, “METHODS OF MODULATING BCKDH” (NESTEC S.A., priority 2016, published 2019).
Entries after “also recorded” stand apart in the source; their conditions may differ. Where two headings read alike, the source gives them in different places.

What was measured:
[1] = test system: branched-chain alpha-keto acid dehydrogenase E1 A subunit (BCKDHA)
[2] = test system: branched-chain alpha-keto acid dehydrogenase kinase (BCKDH kinase)
[3] = test system: branched-chain alpha-keto acid dehydrogenase E1 B subunit (BCKDHB)
BCKDH kinase = conditions: Shimomura et al. (2006) J. Nutr. 136: 250S-253S
[4] = BCKDHA, Table 1b, from Comparative Toxicogenomics Database
[5] = BCKDH kinase, Table 2, from Comparative Toxicogenomics Database
[6] = BCKDHB, Table 1a, from Comparative Toxicogenomics Database

## Clc1cc2c(cc1Cl)Oc1cc(Cl)c(Cl)cc1O2
[1]
  Interaction Actions: affects expression; also recorded: affects cotreatment/; also recorded: increases expression
[2]
  Interaction Actions: affects reaction/; also recorded: decreases expression; also recorded: affects expression
[3]
  Interaction Actions: affects expression

## c1cc2ccc3ccc4ccc5cccc6c(c1)c2c3c4c56 [1,12-benzoperylene]
[1]
  Interaction Actions: increases expression

## C#CC1(O)CC[C@H]2[C@@H]3C(O)C=C4CC(O)CC[C@]4(C)[C@H]3CC[C@@]21C (stereo partly shown) [17-ethynyl-5-androstene-3,7,17-triol]
[1]; [4]
  Interaction Actions: affects binding

## CC(=O)Nc1ccc(O)cc1 [Acetaminophen, reference compound]
[1]; [4]
  Interaction Actions: affects expression; also recorded: increases expression
[2]; [5]
  Interaction Actions: affects expression

## Cl.N [Ammonium Chloride]
[1]
  Interaction Actions: affects expression
[2]
  Interaction Actions: affects expression
[3]
  Interaction Actions: affects expression

## OC[C@H]1O[C@@H](Oc2ccc(O)cc2)[C@H](O)[C@@H](O)[C@@H]1O [Arbutin]
[2]; [5]
  Interaction Actions: decreases expression

## CCNc1nc(Cl)nc(NC(C)C)n1 [Atrazine]
[1]; [4]
  Interaction Actions: increases expression
[2]; [5]
  Interaction Actions: decreases expression

## c1ccc2c(c1)cc1ccc3cccc4ccc2c1c34 [Benzo(a)pyrene]
[3]; [6]
  Interaction Actions: affects expression/; also recorded: affects reaction; also recorded: increases expression

## CC(C)(c1ccc(O)cc1)c1ccc(O)cc1 [Bisphenol A]
[1]; [4]
  Interaction Actions: increases expression
[2]; [5]
  Interaction Actions: affects expression

## NC(=O)N1c2ccccc2C=Cc2ccccc21 [Carbamazepine, reference compound]
[1]; [4]
  Interaction Actions: affects expression

## ClC(Cl)(Cl)Cl [Carbon Tetrachloride]
[1]
  Interaction Actions: increases expression

## C=CC(=C)Cl [Chloroprene]
[1]
  Interaction Actions: increases expression

## CC(C)(Oc1ccc(Cl)cc1)C(=O)O [Clofibric Acid]
[2]; [5]
  Interaction Actions: affects cotreatment/; also recorded: affects expression

## [Cl-].[Cl-].[Co+2] [Cobaltous chloride]
[2]
  Interaction Actions: decreases expression

## [Cu] [Copper]
[2]
  Interaction Actions: affects binding/; also recorded: decreases expression

## O=C(NN=C1CCCCC1)C(=O)NN=C1CCCCC1 [Cuprizone, reference compound]
[3]
  Interaction Actions: increases expression

## CCCCOC(=O)c1ccccc1C(=O)OCCCC [Dibutyl Phthalate]
[2]; [5]
  Interaction Actions: decreases expression

## CCN(CC)N=O [Diethylnitrosamine]
[2]
  Interaction Actions: affects cotreatment/; also recorded: affects expression
[3]
  Interaction Actions: increases expression

## O=c1[nH]cc(F)c(=O)[nH]1 [Fluorouracil, reference compound]
[1]; [4]
  Interaction Actions: affects expression

## c1ccoc1 [Furan]
[1]
  Interaction Actions: affects binding

## OO [Hydrogen Peroxide]
[2]; [5]
  Interaction Actions: affects expression

## OCl [Hypochlorous Acid]
[2]; [5]
  Interaction Actions: decreases expression

## CNC1(c2ccccc2Cl)CCCCC1=O (stereo not shown) [Ketamine, reference compound]
[1]
  Interaction Actions: increases expression

## COCC(=O)O [Methoxyacetic acid]
[2]; [5]
  Interaction Actions: affects expression

## [CH3][Hg][Cl] [Methylmercuric chloride]
[1]
  Interaction Actions: increases expression
[3]
  Interaction Actions: increases expression

## C[C@@H]1Cc2c(Cl)cc(C(=O)N[C@@H](Cc3ccccc3)C(=O)O)c(O)c2C(=O)O1 [Ochratoxin A]
[2]
  Interaction Actions: decreases expression

## CC12CC1(C)C(=O)N(c1cc(Cl)cc(Cl)c1)C2=O (stereo not shown) [Procymidone]
[2]; [5]
  Interaction Actions: decreases expression

## [Na+].[Na+].[O]=[Cr](=[O])([O-])[O][Cr](=[O])(=[O])[O-] [Sodium bichromate]
[2]
  Interaction Actions: decreases expression

## C/C=C(/C)C(=O)O[C@H]1C(C)=C2[C@H]([C@@H]1OC(=O)CCCCCCC)[C@@](C)(OC(C)=O)C[C@H](OC(=O)CCC)[C@@]1(O)[C@H]2OC(=O)[C@@]1(C)O [Thapsigargin, reference compound]
[2]; [5]
  Interaction Actions: decreases expression

## CC[C@@]1(O)C(=O)OCc2c1cc1n(c2=O)Cc2cc3c(CN(C)C)c(O)ccc3nc2-1 [Topotecan, reference compound]
[1]; [4]
  Interaction Actions: affects response

## CCCC(CCC)C(=O)O [Valproic Acid, reference compound]
[1]; [4]
  Interaction Actions: affects expression
[2]; [5]
  Interaction Actions: affects expression
[3]; [6]
  Interaction Actions: affects expression; also recorded: increases expression

## CN[C@H](CC(C)C)C(=O)N[C@H]1C(=O)N[C@@H](CC(N)=O)C(=O)N[C@H]2C(=O)N[C@H]3C(=O)N[C@H](C(=O)N[C@H](C(=O)O)c4cc(O)cc(O)c4-c4cc3ccc4O)[C@H](O)c3ccc(c(Cl)c3)Oc3cc2cc(c3O[C@@H]2O[C@H](CO)[C@@H](O)[C@H](O)[C@H]2O[C@H]2C[C@](C)(N)[C@H](O)[C@H](C)O2)Oc2ccc(cc2Cl)[C@H]1O [Vancomycin, reference compound]
[1]
  Interaction Actions: increases expression
[3]
  Interaction Actions: increases expression

## C=CC1(C)OC(=O)N(c2cc(Cl)cc(Cl)c2)C1=O (stereo not shown) [Vinclozolin]
[1]; [4]
  Interaction Actions: increases expression

## Cc1cccc(Nc2cc(Cl)nc(SCC(=O)O)n2)c1C [pirinixic acid, reference compound]
[1]; [4]
  Interaction Actions: increases expression
[3]; [6]
  Interaction Actions: increases expression

## CC(C)CC(Cl)C(=O)O (stereo not drawn) [α-chloroisocaproic acid]
BCKDH kinase
  inhibitor of BCKDH kinase: most potent known inhibitor of BCKDH kinase

## CC(C)CC(=O)C(=O)O [α-ketoisocaproic acid]
BCKDH kinase
  inhibitor of BCKDH kinase: known physiological inhibitor of BCKDH kinase

## Tunicamycin [reference compound]
[1]
  Interaction Actions: increases expression
[2]
  Interaction Actions: decreases expression

## potassium chromate(VI)
[3]
  Interaction Actions: increases expression
